In ChEMBL document CHEMBL1123796, “New antitumor agents containing the anthracene nucleus” (1987):

Columns and labels:
Assay type in all cases: functional
RPMI-8226 [1] = test: Effect on DNA synthesis was determined by incorporation of radioligand into 8226 human myeloma cells at a concentration of 0.3 ug/mL (*: >50% cell kill)
RPMI-8226 [2] = test: Effect on DNA synthesis was determined by incorporation of radioligand into 8226 human myeloma cells at a concentration of 0.5 ug/mL. (*: >1 log cell kill)
RPMI-8226 [3] = test: Effect on protein synthesis was determined by incorporation of radioligand into 8226 human myeloma cells at a concentration of 0.5 ug/mL. (*: >1 log cell kill)
RPMI-8226 [4] = test: Effect on RNA synthesis was determined by incorporation of radioligand into 8226 human myeloma cells at a concentration of 0.3 ug/mL (*: >50% cell kill)
RPMI-8226 [5] = test: Effect on RNA synthesis was determined by incorporation of radioligand into 8226 human myeloma cells at a concentration of 0.5 ug/mL. (*: >1 log cell kill)
L1210 [6] = test: Antileukemic activity against L-1210 cells in mice at a dose of 37.5 mg/kg administered intraperitoneally after 5 day treatment; settings: Mus musculus, L1210, ip, 120 h, route intraperitoneal
L1210 [7] = test: Effect on RNA synthesis was determined by incorporation of radioligand into L1210 murine leukemia at a concentration of 1 ug/mL. (*: >1 log cell kill); settings: Mus musculus
L1210 [8] = test: Antileukemic activity against L-1210 cells in mice at a dose of 60 mg/kg administered intraperitoneally after 5 day treatment; settings: Mus musculus, L1210, ip, 120 h, route intraperitoneal
L1210 [9] = test: Antileukemic activity against L-1210 cells in mice at a dose of 70 mg/kg administered intraperitoneally after 1 day treatment; settings: Mus musculus, L1210, ip, 24 h, route intraperitoneal
L1210 [10] = test: Antileukemic activity against L-1210 cells in mice at a dose of 70 mg/kg administered intraperitoneally after 5 day treatment; settings: Mus musculus, L1210, ip, 120 h, route intraperitoneal
L1210 [11] = test: Antileukemic activity against L-1210 cells in mice at a dose of 80 mg/kg administered intraperitoneally after 5 day treatment; settings: Mus musculus, L1210, ip, 120 h, route intraperitoneal
L1210 [12] = test: Effect on protein synthesis was determined by incorporation of radioligand into L1210 murine leukemia at a concentration of 0.5 ug/mL. (*: >1 log cell kill); settings: Mus musculus
L1210 [13] = test: Effect on DNA synthesis was determined by incorporation of radioligand into L1210 murine leukemia at a concentration of 0.3 ug/mL (*: >50% cell kill); settings: Mus musculus
L1210 [14] = test: Effect on DNA synthesis was determined by incorporation of radioligand into L1210 murine leukemia at a concentration of 0.5 ug/mL. (*: >1 log cell kill); settings: Mus musculus
L1210 [15] = test: Effect on DNA synthesis was determined by incorporation of radioligand into L1210 murine leukemia at a concentration of 10 ug/mL (*: >1 log cell kill); settings: Mus musculus
Mus musculus [16] = test: Tested for high-dose toxicity in mice at a significant dose of 100 mg/kg administered intraperitoneally after 1 days of treatment; settings: route intraperitoneal
Mus musculus [17] = test: Tested for high-dose toxicity in mice at a significant dose of 100 mg/kg administered intraperitoneally after 5 days of treatment; settings: route intraperitoneal
Mus musculus [18] = test: Tested for high-dose toxicity in mice at a significant dose of 30 mg/kg administered intraperitoneally after 5 days of treatment; settings: route intraperitoneal
Mus musculus [19] = test: Tested for high-dose toxicity in mice at a significant dose of 37.5 mg/kg administered intraperitoneally after 5 days of treatment; settings: route intraperitoneal
Mus musculus [20] = test: Tested for high-dose toxicity in mice at a significant dose of 45 mg/kg administered intraperitoneally after 5 days of treatment; settings: route intraperitoneal
Mus musculus [21] = test: Tested for high-dose toxicity in mice at a significant dose of 52.5 mg/kg administered intraperitoneally after 5 days of treatment; settings: route intraperitoneal
Mus musculus [22] = test: Tested for high-dose toxicity in mice at a significant dose of 70 mg/kg administered intraperitoneally after 5 days of treatment; settings: route intraperitoneal
Mus musculus [23] = test: Tested for skin toxicity in BALB/c mice at a significant dose of 0.25 mg/kg administered intraintradermally and involved concentric circular areas of induration.
Mus musculus [24] = test: Tested for skin toxicity in BALB/c mice at a significant dose of 0.25 mg/kg administered intraintradermally and involved concentric circular areas of ulceration
Mus musculus [25] = test: Tested for skin toxicity in BALB/c mice at a significant dose of 1.25 mg/kg administered intraintradermally and involved concentric circular areas of erythema
Mus musculus [26] = test: Tested for skin toxicity in BALB/c mice at a significant dose of 2.00 mg/kg administered intraintradermally and involved concentric circular areas of ulceration
Mus musculus [27] = test: Tested for skin toxicity in BALB/c mice at a significant dose of 2.5 mg/kg administered intraintradermally and involved concentric circular areas of erythema
Mus musculus [28] = test: Tested for skin toxicity in BALB/c mice at a significant dose of 2.5 mg/kg administered intraintradermally and involved concentric circular areas of induration.
Mus musculus [29] = test: Tested for skin toxicity in BALB/c mice at a significant dose of 2.5 mg/kg administered intraintradermally and involved concentric circular areas of ulceration
Mus musculus [30] = test: Tested for percent average weekly weight change in mice at a significant dose of 37.5 mg/kg administered intraperitoneally after 5 days of treatment; settings: route intraperitoneal
Mus musculus [31] = test: Tested for percent average weekly weight change in mice at a significant dose of 60 mg/kg administered intraperitoneally after 5 days of treatment; settings: route intraperitoneal
Mus musculus [32] = test: Tested for percent average weekly weight change in mice at a significant dose of 80 mg/kg administered intraperitoneally after 5 days of treatment; settings: route intraperitoneal
Mus musculus [33] = test: Tested for percent average weekly weight change in mice at a significant dose of 90 mg/kg administered intraperitoneally after 1 days of treatment; settings: route intraperitoneal
Mus musculus [34] = test: Tested for percent average weekly weight change in mice at a significant dose of 90 mg/kg administered intraperitoneally after 5 days of treatment; settings: route intraperitoneal
P388 [35] = test: Antileukemic activity against P-388 in mice at a dose of 70 mg/kg administered intraperitoneally after 5 day treatment; settings: Mus musculus, P388, ip, 120 h, route intraperitoneal
P388 [36] = test: Antileukemic activity against P-388 in mice at a dose of 80 mg/kg administered intraperitoneally after 5 day treatment; settings: Mus musculus, P388, ip, 120 h, route intraperitoneal
P388 [37] = test: Antileukemic activity against P-388 in mice at a dose of 100 mg/kg administered intraperitoneally after 1 day treatment; settings: Mus musculus, P388, ip, 24 h, route intraperitoneal
P388 [38] = test: Antileukemic activity against P-388 in mice at a dose of 60 mg/kg administered intraperitoneally after 1 day treatment; settings: Mus musculus, P388, ip, 24 h, route intraperitoneal
WiDr = test: Tested in vitro for inhibitory activity of human tumor cell growth against WIDR colon tumor, by using clonogenic assays.; settings: read-out: ID50 (the source's name)
[39] = In vitro inhibition of human UACC-66 ovarian tumor cell line growth.; settings: read-out: ID50 (the source's name)
L1210 [40] = test: Effect on protein synthesis was determined by incorporation of radioligand into L1210 murine leukemia at a concentration of 0.01 ug/mL; settings: Mus musculus

SMILES: CN(C)CCNCc1c2ccccc2c(CNCCN(C)C)c2ccccc12
- inhibition at 0.3 µg/mL (RPMI-8226 [1]): 8.4%
- inhibition at 0.5 µg/mL (RPMI-8226 [2]): 24.3%
- inhibition at 0.5 µg/mL (RPMI-8226 [3]): 63.5%
- inhibition at 0.3 µg/mL (RPMI-8226 [4]): 0%
- inhibition at 0.5 µg/mL (RPMI-8226 [5]): 7.3%
- ILS at 37.5 mg/kg (L1210 [6]): 11%
- inhibition at 1 µg/mL (L1210 [7]): 6.9%
- ILS at 60 mg/kg (L1210 [8]): 27%
- ILS at 70 mg/kg (L1210 [9]): 40%
- ILS at 70 mg/kg (L1210 [10]): 30%
- ILS at 80 mg/kg (L1210 [11]): 15%
- inhibition at 0.5 µg/mL (L1210 [12]): 21.8%
- inhibition at 0.3 µg/mL (L1210 [13]): 0%
- inhibition at 0.5 µg/mL (L1210 [14]): 5.8%
- inhibition at 10 µg/mL (L1210 [15]): 75.7%
- Lethality (Mus musculus [16]): 60%
- Median day of death (Mus musculus [16]): 0
- Lethality (Mus musculus [17]): 80%
- Median day of death (Mus musculus [17]): 8
- Lethality (Mus musculus [18]): 0%
- Lethality (Mus musculus [19]): 20%
- Median day of death (Mus musculus [19]): 2
- Lethality (Mus musculus [20]): 30%
- Median day of death (Mus musculus [20]): 2
- Lethality (Mus musculus [21]): 100%
- Median day of death (Mus musculus [21]): 4
- Lethality (Mus musculus [22]): 10%
- Median day of death (Mus musculus [22]): 0
- Extent of skin lesions (Mus musculus [23]): 0.7 cm**2
- Extent of skin lesions (Mus musculus [24]): 0.2 cm**2
- Extent of skin lesions (Mus musculus [25]): 2.2 cm**2
- Extent of skin lesions (Mus musculus [26]): 2.6 cm**2
- Extent of skin lesions (Mus musculus [27]): 5 cm**2
- Extent of skin lesions (Mus musculus [28]): 6.1 cm**2
- Extent of skin lesions (Mus musculus [29]): 3.8 cm**2
- Average weekly weight change (Mus musculus [30]): -7%
- Average weekly weight change (Mus musculus [31]): 0%
- Average weekly weight change (Mus musculus [32]): -10%
- Average weekly weight change (Mus musculus [33]): -5%
- Average weekly weight change (Mus musculus [34]): -11%
- ILS at 70 mg/kg (P388 [35]): 10%
- ILS at 80 mg/kg (P388 [36]): 0%
- ILS at 100 mg/kg (P388 [37]): -33%
- ILS at 60 mg/kg (P388 [38]): 11%
- IC50 (WiDr): 180 nM
- IC50 [39]: 1600 nM
- inhibition at 0.01 µg/mL (L1210 [40]): 0%
